Data taken from patent US8785619B1, “Nucleosides and oligonucleotides for studies on reversal of cytotoxic and mutagenic damage of DNA potential diagnostics tools” (ChemGenes Corporation, priority 2003, dated 2014).

Columns and labels:
[1] = Kinetic studies of N6 protecting group deprotection in ammonia: migration of methyl group from N1 to N6 (Dimroth rearrangement), by TLC and HPLC; format: physicochemical
From the text: Prior to utilize the N-6 chloroacetyl protected N-1 methyl-2′-deoxyadenosine 3′-cyanoethyl phosphoramidite, we carried out a number of kinetic studies for the deprotection of chloroacetyl group and determination of presence of any N-6 methyl
Our subsequent studies to develop a ideal group which would be cleanly removed under aq ammonia deprotection condition and would have negligible amount of Dimroth rearrangement product as bye product.
FIG. 7. 5′-DMT-N^1-Methyl-N^6-FMOC-2′-deoxyadenosine-Kinetic Test for FMOC. Deprotection (20% methanolic ammonia at 37 C. Note: The N-6 methyl migration product is seen 2.27% after complete deprotection.
(required to knock off Phenoxy acetyl from N^6 position). To minimize this migration, we introduced N-FMOC group in place of N-PAC which reduced 20% methanolic ammonia hydrolysis time to only 4 hours at 37° C. but even in 4 hours, approx. 2.5% migration took place. This migration of methyl group from N-^1 to N^6 position was confirmed by TLC & HPLC.

[2] = cited from earlier work
[3] = 2M methanolic ammonia at room temperature

Molecule: N-6 chloroacetyl protected N-1 methyl-2′-deoxyadenosine 3′-cyanoethyl phosphoramidite
- N-6 methyl-2′-deoxy adenosine formation (Dimroth rearrangement product) ([1]; deprotection of chloroacetyl group): 8-10%

Molecule: Cn1cnc2c(ncn2[C@H]2C[C@H](O)[C@@H](CO)O2)c1=N [N^1-methyl-2′-deoxyadenosine]
- half life of conversion into N6-methyl-2′-deoxyadenosine ([2]; 25% aq. ammonia): 36 h

Molecule: Cn1cnc2c(ncn2[C@@H]2O[C@H](CO)[C@@H](O)[C@H]2O)c1=N [N^1-methyl adenosine]
- time stable [2, 3]: 3 days
- time to total conversion into N6-methyl adenosine [2, 3]: 6 days

Molecule: COc1ccc(C(OC[C@H]2O[C@@H](n3cnc4c(=NC(=O)OCC5c6ccccc6-c6ccccc65)n(C)cnc43)C[C@@H]2O)(c2ccccc2)c2ccc(OC)cc2)cc1 [5′-DMT-N^1-Methyl-N^6-FMOC-2′-deoxyadenosine]
- N-6 methyl migration product after complete deprotection ([1]; FMOC deprotection, 20% methanolic ammonia at 37 C (FIG. 7)): 2.27%

Molecule: COc1ccc(C(OCC2OC(n3cnc4c(=NC(=O)OCC5c6ccccc6-c6ccccc65)n(C)cnc43)CC2OP(OCCC#N)N(C(C)C)C(C)C)(c2ccccc2)c2ccc(OC)cc2)cc1 (stereo not drawn) [5′-DMT-N^1-Methyl-N^6-FMOC-2′-deoxyadenosine-3′-cyanoethyl, n,n-diisopropyl phosphoramidite]
- presence of N-6 methyl-2′-deoxy adenosine ([1]; aq ammonia deprotection): less than 1%
